Assay results from paper PMC4406087, “Remaining challenges in cellular flavin cofactor homeostasis and flavoprotein biogenesis” (Frontiers in Chemistry, 2015).

Legend:
6His-hFADS2 [1] = molecular target: T1, 6His-hFADS2 (Homo sapiens, UniProt Q8NFF5); experiment: flavin fluorescence of protein band on SDS-PAGE under UV; assay type: biochemical; conditions: tightly but not covalently bound, 1 mol FAD per monomer; fluorescence lost on transfer to apo-Me2GlyDH
T1 construct: gene FLAD1; recombinant 6His-tagged cytosolic isoform 2, purified

6His-apo-Me2GlyDH = molecular target: T2, 6His-apo-Me2GlyDH (Rattus norvegicus, UniProt Q63342); experiment: as above; assay type: binding; conditions: covalent; 20 μM FAD, 50 mM Tris-HCl pH 7.5, 5 mM MgCl2, 5 mM ATP, 0.5% Triton X-100, 37°C; stimulated by rat liver mitochondrial matrix
T2 construct: gene Dmgdh; 6His-tagged, E. coli, purified apo-form
T2 sequence (Q63342 44-857): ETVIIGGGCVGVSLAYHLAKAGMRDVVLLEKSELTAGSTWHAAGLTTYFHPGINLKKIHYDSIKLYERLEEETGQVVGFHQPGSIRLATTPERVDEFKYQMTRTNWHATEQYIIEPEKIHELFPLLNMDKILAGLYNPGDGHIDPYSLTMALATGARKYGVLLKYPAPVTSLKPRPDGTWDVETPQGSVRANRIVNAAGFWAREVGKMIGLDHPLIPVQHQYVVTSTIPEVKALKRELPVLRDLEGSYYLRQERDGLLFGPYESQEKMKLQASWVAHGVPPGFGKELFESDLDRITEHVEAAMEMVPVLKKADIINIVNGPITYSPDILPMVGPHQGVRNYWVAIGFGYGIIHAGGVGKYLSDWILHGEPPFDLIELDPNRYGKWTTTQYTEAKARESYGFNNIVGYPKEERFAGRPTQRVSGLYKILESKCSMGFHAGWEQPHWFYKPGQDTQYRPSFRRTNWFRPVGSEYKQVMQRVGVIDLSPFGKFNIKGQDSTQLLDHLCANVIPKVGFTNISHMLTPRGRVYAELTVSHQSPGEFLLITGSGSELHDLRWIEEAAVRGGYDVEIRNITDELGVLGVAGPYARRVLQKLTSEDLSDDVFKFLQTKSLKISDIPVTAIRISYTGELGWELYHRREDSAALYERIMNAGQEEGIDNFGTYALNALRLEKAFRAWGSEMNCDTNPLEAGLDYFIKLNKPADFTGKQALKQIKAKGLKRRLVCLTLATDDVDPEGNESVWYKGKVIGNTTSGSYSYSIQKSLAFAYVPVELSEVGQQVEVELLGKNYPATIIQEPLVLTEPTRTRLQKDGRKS

6His-hFADS2 [2] = molecular target: T1, 6His-hFADS2; experiment: spectrofluorimetric FAD synthesis assay, Dixon plot; assay type: biochemical; conditions: 50 mM Tris-HCl pH 7.5, 5 mM MgCl2, 37°C; product inhibition: competitive vs FMN, non-competitive vs ATP

T1 sequence (Q8NFF5 98-587 limits assumed): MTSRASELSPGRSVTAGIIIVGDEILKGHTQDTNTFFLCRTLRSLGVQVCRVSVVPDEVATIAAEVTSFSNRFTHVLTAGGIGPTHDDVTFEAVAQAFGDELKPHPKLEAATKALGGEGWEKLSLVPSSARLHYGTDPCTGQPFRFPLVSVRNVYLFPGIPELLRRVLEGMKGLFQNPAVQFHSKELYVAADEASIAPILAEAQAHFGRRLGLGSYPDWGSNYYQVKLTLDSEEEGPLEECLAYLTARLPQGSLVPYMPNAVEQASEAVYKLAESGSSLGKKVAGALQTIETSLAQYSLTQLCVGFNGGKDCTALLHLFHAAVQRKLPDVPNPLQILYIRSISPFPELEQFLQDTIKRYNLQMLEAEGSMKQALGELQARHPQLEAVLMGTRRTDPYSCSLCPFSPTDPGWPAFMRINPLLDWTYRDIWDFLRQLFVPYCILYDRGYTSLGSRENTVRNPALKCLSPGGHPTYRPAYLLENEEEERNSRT

Row | SMILES | flavin fluorescence of protein band on SDS-PAGE under UV (6His-hFADS2 [1]) | flavin fluorescence of protein band on SDS-PAGE under UV (6His-apo-Me2GlyDH) | spectrofluorimetric FAD synthesis assay, Dixon plot (6His-hFADS2 [2])
1 | Cc1cc2nc3c(=O)[nH]c(=O)nc-3n(C[C@H](O)[C@H](O)[C@H](O)COP(=O)(O)OP(=O)(O)OC[C@H]3O[C@@H](n4cnc5c(N)ncnc54)[C@H](O)[C@@H]3O)c2cc1C [FAD] | hFADS loses its fluorescence upon incubation with apo-Me2GlyDH | mitochondrial matrix is able to stimulate apo-Me2GlyDH flavinylation | 
2 | O=P(O)(O)OP(=O)(O)O [PPi] |  |  | the inhibition by PPi against FMN is consistent with competitive inhibition
